ChEMBL document CHEMBL4507319 (2021)

How the values were obtained:
[1] = molecular target: CDK9/cyclin T1 (Homo sapiens) (UniProt O60563+P50750); assay: CDK9/cyclin T1(h) Eurofins kinase panel; assay type: protein-complex assay; details: Compound concentration 1.0 uM
[2] = molecular target: Casein kinase II subunit alpha (Homo sapiens) (UniProt P68400); assay: CK2alpha1(h) Eurofins kinase panel; details: Compound concentration 1.0 uM
[3] = molecular target: Epithelial discoidin domain-containing receptor 1 (Homo sapiens) (UniProt Q08345); assay: DDR1(h) Eurofins kinase panel; details: Compound concentration 1.0 uM
[4] = molecular target: T1, Discoidin domain-containing receptor 2 (Homo sapiens) (UniProt Q16832); assay: DDR2(h) Eurofins kinase panel; details: Compound concentration 1.0 uM
T1 sequence (whole entry): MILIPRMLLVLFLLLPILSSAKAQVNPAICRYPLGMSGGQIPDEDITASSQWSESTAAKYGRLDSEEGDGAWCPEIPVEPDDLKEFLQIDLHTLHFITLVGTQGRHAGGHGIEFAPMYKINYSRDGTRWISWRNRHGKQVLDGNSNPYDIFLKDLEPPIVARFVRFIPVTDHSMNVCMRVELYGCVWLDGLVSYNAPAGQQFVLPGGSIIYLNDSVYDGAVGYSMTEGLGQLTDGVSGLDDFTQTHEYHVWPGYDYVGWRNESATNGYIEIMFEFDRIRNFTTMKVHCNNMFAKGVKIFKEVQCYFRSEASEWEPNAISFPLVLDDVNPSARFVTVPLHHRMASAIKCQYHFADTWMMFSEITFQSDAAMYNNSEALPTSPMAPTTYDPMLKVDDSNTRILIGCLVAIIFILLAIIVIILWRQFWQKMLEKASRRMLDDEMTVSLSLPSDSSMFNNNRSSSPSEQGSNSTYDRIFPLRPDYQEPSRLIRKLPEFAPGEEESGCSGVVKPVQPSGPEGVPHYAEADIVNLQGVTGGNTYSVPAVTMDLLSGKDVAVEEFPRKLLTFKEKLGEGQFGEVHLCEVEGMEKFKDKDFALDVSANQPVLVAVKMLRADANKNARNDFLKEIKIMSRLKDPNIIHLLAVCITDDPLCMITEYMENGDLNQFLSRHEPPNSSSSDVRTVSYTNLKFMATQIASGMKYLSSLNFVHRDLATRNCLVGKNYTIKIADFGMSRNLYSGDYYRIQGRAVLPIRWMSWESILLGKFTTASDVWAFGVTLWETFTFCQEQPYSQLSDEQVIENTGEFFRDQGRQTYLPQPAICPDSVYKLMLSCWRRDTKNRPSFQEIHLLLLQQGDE

[5] = molecular target: Ephrin type-A receptor 5 (Homo sapiens) (UniProt P54756); assay: EphA5(h) Eurofins kinase panel; details: Compound concentration 1.0 uM
[6] = molecular target: eIF-2-alpha kinase GCN2 (Homo sapiens) (UniProt Q9P2K8); assay: GCN2(h) Eurofins kinase panel; details: Compound concentration 1.0 uM
[7] = molecular target: Insulin-like growth factor 1 receptor (Homo sapiens) (UniProt P08069); assay: IGF-1R(h) Eurofins kinase panel; details: Compound concentration 1.0 uM
[8] = molecular target: Mitogen-activated protein kinase 10 (Homo sapiens) (UniProt P53779); assay: JNK3(h) Eurofins kinase panel; details: Compound concentration 1.0 uM
[9] = molecular target: T2, Dual specificity mitogen-activated protein kinase kinase 7 (Homo sapiens) (UniProt O14733); assay: MKK7beta(h) Eurofins kinase panel; details: Compound concentration 1.0 uM
T2 sequence (whole entry): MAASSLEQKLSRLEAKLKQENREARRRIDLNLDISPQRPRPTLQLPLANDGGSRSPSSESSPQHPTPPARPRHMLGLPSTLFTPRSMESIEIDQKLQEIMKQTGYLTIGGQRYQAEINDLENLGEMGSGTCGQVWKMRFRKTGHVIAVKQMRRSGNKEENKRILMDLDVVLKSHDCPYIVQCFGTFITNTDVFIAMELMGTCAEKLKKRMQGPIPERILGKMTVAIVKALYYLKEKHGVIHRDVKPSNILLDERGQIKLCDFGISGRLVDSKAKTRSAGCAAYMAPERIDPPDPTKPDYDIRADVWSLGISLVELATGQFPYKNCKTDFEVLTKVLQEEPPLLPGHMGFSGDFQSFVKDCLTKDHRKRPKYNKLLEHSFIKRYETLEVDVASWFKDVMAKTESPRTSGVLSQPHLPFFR

[10] = molecular target: T3, Mitogen-activated protein kinase 12 (Homo sapiens) (UniProt P53778); assay: SAPK3(h) Eurofins kinase panel; details: Compound concentration 1.0 uM
T3 sequence (whole entry): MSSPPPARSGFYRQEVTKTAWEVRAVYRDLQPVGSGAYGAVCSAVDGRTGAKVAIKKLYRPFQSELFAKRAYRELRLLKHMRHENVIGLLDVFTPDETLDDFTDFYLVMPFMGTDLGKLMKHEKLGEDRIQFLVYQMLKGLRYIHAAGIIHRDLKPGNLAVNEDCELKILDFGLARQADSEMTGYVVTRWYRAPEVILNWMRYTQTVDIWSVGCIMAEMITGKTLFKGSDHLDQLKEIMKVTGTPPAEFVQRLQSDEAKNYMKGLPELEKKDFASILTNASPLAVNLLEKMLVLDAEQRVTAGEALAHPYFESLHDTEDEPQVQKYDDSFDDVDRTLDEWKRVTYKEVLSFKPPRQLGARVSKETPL

[11] = molecular target: T4, Serine/threonine-protein kinase Sgk3 (Homo sapiens) (UniProt Q96BR1); assay: SGK3(h) Eurofins kinase panel; details: Compound concentration 1.0 uM
T4 sequence (whole entry): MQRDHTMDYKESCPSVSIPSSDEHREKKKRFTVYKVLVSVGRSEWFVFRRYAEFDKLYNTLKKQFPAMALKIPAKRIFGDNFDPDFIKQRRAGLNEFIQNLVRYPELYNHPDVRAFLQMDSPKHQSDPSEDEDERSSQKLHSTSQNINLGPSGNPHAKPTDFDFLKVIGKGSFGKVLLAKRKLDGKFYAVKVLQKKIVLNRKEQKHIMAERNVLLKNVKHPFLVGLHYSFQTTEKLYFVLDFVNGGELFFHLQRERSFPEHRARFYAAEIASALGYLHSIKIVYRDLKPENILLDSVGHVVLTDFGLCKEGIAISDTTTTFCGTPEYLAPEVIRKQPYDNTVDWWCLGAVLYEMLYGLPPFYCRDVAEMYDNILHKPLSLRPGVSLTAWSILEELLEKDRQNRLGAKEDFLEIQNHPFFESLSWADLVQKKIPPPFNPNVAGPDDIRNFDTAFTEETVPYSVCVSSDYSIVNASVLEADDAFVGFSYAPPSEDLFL

[12] = molecular target: Serine/threonine-protein kinase SIK3 (Homo sapiens) (UniProt Q9Y2K2); assay: SIK3(h) Eurofins kinase panel; details: Compound concentration 1.0 uM
[13] = molecular target: Tau-tubulin kinase 2 (Homo sapiens) (UniProt Q6IQ55); assay: TTBK2(h) Eurofins kinase panel; details: Compound concentration 1.0 uM
[14] = molecular target: Phosphatidylinositol 4,5-bisphosphate 3-kinase catalytic subunit gamma isoform (Homo sapiens) (UniProt P48736); assay: PI3 Kinase (p120g)(h) Eurofins kinase panel; details: Compound concentration 1.0 uM
[15] = tested on: Raji; assay: RAJI cell line Proliferation assay; assay type: functional, Homo sapiens; details: time 3 day
[16] = tested on: LP-1; assay: LP-1 cell line Proliferation assay; assay type: functional, Homo sapiens; details: time 3 day
[17] = tested on: A549; assay: A549 cell line Proliferation assay; assay type: functional, Homo sapiens; details: time 3 day
[18] = molecular target: Histamine H3 receptor (Homo sapiens) (UniProt Q9Y5N1); details: Compound concentration 10.0 uM
[19] = molecular target: Beta-2 adrenergic receptor (Homo sapiens) (UniProt P07550); details: Compound concentration 10.0 uM
Chain of Beta-2 adrenergic receptor (Homo sapiens) (P07550 whole entry, looked up): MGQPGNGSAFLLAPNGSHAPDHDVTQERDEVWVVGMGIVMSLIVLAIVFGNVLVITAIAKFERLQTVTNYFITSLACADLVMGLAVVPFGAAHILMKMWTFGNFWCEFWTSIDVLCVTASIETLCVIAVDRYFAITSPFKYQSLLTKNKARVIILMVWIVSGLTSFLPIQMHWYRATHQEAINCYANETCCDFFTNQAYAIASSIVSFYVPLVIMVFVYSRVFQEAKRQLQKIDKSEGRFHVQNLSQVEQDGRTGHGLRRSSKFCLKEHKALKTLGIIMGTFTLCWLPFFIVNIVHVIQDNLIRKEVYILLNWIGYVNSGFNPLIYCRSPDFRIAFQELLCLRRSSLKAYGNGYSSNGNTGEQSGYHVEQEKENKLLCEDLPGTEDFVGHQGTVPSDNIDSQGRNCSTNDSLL

Chain of eIF-2-alpha kinase GCN2 (Homo sapiens) (Q9P2K8 whole entry): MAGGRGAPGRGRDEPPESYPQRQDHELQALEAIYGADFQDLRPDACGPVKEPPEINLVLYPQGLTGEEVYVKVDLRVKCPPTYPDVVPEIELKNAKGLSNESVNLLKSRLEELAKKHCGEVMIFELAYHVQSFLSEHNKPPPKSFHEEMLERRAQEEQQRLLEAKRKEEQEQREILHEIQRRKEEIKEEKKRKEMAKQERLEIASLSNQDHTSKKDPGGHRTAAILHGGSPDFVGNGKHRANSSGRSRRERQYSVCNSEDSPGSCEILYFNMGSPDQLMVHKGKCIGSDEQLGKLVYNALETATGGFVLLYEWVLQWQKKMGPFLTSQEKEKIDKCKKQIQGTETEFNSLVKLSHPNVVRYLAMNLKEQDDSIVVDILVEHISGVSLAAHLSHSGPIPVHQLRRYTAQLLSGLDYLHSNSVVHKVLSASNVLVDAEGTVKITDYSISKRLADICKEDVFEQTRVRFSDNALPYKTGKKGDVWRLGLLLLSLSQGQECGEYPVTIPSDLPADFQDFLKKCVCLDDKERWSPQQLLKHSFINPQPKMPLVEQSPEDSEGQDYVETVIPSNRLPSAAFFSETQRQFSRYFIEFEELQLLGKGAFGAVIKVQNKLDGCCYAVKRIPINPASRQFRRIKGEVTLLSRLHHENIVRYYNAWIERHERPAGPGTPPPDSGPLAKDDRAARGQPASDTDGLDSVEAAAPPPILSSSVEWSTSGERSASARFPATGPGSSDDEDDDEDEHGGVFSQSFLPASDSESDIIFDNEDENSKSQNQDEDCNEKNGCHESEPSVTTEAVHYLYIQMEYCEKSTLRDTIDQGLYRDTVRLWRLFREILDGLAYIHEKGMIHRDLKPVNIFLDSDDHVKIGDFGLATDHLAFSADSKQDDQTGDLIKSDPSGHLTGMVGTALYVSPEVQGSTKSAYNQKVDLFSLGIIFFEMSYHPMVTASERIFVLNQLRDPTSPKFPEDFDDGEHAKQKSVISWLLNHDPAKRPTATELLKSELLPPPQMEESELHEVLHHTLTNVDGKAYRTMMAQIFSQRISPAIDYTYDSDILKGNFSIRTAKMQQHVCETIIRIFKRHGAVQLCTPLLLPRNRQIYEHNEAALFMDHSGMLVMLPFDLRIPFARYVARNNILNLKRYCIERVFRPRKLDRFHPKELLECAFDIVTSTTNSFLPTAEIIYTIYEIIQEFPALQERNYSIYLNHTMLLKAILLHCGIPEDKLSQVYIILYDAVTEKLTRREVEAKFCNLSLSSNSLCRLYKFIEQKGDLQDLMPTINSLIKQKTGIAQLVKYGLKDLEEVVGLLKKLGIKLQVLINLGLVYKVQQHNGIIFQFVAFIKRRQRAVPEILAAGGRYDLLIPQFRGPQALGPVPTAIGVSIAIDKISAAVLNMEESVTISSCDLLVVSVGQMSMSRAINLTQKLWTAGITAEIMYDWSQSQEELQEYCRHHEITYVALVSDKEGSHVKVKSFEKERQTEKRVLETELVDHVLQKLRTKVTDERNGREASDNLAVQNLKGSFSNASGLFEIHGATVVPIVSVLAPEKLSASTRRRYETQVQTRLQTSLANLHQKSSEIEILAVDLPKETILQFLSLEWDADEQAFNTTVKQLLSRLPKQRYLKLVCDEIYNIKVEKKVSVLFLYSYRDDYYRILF
Chain of Insulin-like growth factor 1 receptor (Homo sapiens) (P08069 31-736 limits assumed): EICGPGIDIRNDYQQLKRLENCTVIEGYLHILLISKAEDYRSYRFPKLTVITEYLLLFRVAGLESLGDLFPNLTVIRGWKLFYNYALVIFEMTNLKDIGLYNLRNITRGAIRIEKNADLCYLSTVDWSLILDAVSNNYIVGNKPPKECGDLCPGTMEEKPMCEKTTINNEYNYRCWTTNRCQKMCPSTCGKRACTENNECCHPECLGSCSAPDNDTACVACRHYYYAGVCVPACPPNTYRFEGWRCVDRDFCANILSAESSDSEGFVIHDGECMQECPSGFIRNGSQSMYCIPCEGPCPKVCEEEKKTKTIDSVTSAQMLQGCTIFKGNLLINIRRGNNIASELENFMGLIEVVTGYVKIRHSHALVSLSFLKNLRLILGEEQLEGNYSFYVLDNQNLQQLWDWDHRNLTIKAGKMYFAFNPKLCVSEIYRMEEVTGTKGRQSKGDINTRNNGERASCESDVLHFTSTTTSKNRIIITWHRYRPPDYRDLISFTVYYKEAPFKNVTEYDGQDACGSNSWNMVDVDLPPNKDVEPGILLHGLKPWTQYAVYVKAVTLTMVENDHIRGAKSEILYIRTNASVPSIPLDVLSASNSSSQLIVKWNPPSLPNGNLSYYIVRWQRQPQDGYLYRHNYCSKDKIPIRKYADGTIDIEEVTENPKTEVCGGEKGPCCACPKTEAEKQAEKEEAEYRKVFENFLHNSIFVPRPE
Chain of Insulin-like growth factor 1 receptor (Homo sapiens) (P08069 741-1367 limits assumed): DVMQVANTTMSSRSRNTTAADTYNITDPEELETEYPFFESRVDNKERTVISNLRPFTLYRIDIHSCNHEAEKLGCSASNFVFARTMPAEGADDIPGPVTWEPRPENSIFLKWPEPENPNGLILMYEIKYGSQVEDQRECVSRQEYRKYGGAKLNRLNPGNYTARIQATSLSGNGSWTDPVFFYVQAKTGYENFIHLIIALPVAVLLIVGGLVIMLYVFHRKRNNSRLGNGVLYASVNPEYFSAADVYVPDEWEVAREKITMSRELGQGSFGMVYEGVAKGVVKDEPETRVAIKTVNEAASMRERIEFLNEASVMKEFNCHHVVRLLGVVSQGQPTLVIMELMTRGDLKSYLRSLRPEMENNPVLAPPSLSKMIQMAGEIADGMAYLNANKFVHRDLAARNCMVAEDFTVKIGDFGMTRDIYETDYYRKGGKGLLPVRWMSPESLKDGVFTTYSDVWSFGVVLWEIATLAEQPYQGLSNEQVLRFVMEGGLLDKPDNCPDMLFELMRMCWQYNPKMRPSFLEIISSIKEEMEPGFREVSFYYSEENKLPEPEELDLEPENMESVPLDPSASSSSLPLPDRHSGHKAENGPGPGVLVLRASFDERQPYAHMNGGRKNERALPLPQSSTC
Chain of Ephrin type-A receptor 5 (Homo sapiens) (P54756 whole entry): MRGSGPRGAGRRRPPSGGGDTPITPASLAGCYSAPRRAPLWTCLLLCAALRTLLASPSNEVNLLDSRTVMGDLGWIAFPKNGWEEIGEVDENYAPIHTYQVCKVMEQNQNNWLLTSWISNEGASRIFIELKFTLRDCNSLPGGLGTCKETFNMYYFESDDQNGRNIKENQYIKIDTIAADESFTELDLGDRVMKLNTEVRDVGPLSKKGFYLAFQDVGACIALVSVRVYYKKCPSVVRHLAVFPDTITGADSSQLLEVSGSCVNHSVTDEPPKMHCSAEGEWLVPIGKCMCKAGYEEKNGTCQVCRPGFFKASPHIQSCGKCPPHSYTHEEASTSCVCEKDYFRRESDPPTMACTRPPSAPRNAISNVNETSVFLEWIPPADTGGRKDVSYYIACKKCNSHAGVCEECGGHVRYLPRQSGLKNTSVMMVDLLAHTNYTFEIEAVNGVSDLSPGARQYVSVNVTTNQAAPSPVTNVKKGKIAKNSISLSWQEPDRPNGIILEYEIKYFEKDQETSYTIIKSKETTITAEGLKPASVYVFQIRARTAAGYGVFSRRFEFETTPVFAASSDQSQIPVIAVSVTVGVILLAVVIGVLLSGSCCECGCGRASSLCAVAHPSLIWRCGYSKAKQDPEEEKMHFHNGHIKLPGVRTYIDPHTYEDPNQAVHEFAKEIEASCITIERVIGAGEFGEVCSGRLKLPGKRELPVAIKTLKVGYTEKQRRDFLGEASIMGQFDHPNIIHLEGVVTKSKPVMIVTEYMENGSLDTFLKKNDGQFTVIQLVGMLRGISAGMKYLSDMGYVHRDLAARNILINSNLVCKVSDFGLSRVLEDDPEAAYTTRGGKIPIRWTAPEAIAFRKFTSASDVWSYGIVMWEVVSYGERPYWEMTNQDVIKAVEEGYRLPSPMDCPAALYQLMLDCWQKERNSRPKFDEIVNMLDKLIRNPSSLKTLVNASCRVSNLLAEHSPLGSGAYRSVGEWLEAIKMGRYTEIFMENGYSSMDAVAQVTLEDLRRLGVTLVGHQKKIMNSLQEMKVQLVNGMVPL
Chain of Histamine H3 receptor (Homo sapiens) (Q9Y5N1 whole entry): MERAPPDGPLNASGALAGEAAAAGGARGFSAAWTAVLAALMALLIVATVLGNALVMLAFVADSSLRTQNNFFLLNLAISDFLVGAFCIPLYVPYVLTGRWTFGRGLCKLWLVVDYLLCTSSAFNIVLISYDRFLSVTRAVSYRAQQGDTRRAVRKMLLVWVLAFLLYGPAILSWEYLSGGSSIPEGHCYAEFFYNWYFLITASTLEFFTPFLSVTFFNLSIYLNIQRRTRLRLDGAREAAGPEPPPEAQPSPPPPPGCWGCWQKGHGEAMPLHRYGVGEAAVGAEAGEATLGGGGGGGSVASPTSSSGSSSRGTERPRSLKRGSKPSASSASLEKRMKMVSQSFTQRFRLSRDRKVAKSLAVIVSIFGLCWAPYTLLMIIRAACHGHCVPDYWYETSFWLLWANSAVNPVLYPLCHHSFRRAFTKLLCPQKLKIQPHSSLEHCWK

CCc1ccccc1C(=O)Nc1n[nH]c2c(C)c(F)c(C3C(C#N)=C(C)N(C)C(C)=C3C#N)cc12 [BAY-3827] showed a % residual kinase activity [1] of 91%, a % residual kinase activity [2] of 93% and a % residual kinase activity [3] of 32%. The % residual kinase activity [4] was 92%, the % residual kinase activity [5] was 89% and the % residual kinase activity [6] was 100%. For the same compound, the % residual kinase activity [7] was 110%, the % residual kinase activity [8] was 72% and the % residual kinase activity [9] was 103%. The % residual kinase activity [10] was 106%, the % residual kinase activity [11] was 95% and the % residual kinase activity [12] was 84%. For the same compound, the % residual kinase activity [13] was 108%, the % residual kinase activity [14] was 99% and the “Cell Proliferation IC50” value [15] was >33 µM. The “Cell Proliferation IC50” value [16] was 1.9 µM and the “Cell Proliferation IC50” value [17] was 25.8 µM.

Compound CC1=C(C#N)C(c2ccc3c(c2)c(NC(=O)c2ccccc2C)nn3C)C(C#N)=C(C)N1 [BAY-974] has an inhibition [18] of 1.89% and an inhibition [19] of -7.25%.
